Laboratory results taken from patent US20180188270A1, “DIAGNOSTIC TEST FOR ALZHEIMER'S DISEASE BASED ON IDENTIFICATION OF A PROTEOLYTIC PATHWAY” (Health Research, Inc., priority 2015, published 2018).
Entries after “also recorded” stand apart in the source; their conditions may differ.

What was measured:
plasma hAβ1-42 = assay: Effects of oral anticoagulants on plasma level of hAβ1-42 in mice; format: in vivo; conditions: for elevation of plasma levels of hAβ1-42: hAβ1-42 40 μg/kg, 6 h; for top dose tested is the maximal soluble dose: mouse, in vivo
Experimental: Blood was collected into K3 EDTA-containing tubes (Multivette 600 from Sarstedt). […] Rivaroxaban, dabigatran (dabigatran elexilate) and warfarin (warfarin sodium tablets) were from Bristol-Myers-Squibb, Combi-Blocks, and Advanced Chemblocks, respectively. Rivaroxaban was dissolved in 10% ethanol, 40% Solutol HS15 (Sigma) and 50% water and was administered to mice in 0.2 ml volume per 20 g body weight. Dabigatran was dissolved in 2% dimethyl sulfoxide in soy oil (Sigma) and was also administered to mice in 0.2 ml volume per 20 g body weight. Warfarin was dissolved in water and was administered to mice in 0.1 ml volume per 20 g body weight.

plasma mSRC = assay: Plasma SRC concentration in mice by ELISA; format: in vivo, mouse; conditions: FXII−/− mice, CCl4 0.5 g/kg or hPEPD 4 mg/kg i.p., 24 h
Experimental: Animal studies. All animal studies were performed in accordance with protocols approved by the Institutional Animal Care and Use Committee at Roswell Park Cancer Institute. Male mice at 7-8 weeks of age were used, including wild type (WT) mice (C57BL/6), and mice deficient in FXII (C57BL/6-FXII^−/−) or FVII (C57BL/6-FVII^tTA/tTA). WT C57BL/6 mice were purchased from Taconic. C57BL/6-FXII^−/− mice and C57BL/6-FVII^tTA/tTA mice were bred in our own facility and genotyped. The breeders were kindly provided by Dr. Francis J. Castellino at University of Notre Dame. […] CCl4 was dissolved in corn oil, whereas all other substances were dissolved in PBS. The vehicle or the test substance was given to mice in 0.1 ml volume per 20 g body weight. Blood was collected from the mice at specific times by cardiac puncture at the time of sacrifice by carbon dioxide, and heart, liver and kidney were also collected from some of the mice. […]
Measurement of plasma levels of PEPD, SRC, Aβ1-42 and FI. […] Upon adequate color development, 100 μl of stop solution (Cell Signaling, 7002) was added to each well, and absorbance at 450 nm was promptly recorded by a microtiter plate reader. Plasma FI concentration was determined using an assay kit (400-374-130050) from GenWay Biotech, following the manufacturer's instruction.

liver = assay: Liver damage after CCl4: plasma AST and ALT, liver weight; format: in vivo, mouse; conditions: WT mice and FXII−/− mice, CCl4 0.5 g/kg i.p., 24 h
Experimental: (§1) Animal studies. All animal studies were performed in accordance with protocols approved by the Institutional Animal Care and Use Committee at Roswell Park Cancer Institute. Male mice at 7-8 weeks of age were used, including wild type (WT) mice (C57BL/6), and mice deficient in FXII (C57BL/6-FXII^−/−) or FVII (C57BL/6-FVII^tTA/tTA). WT C57BL/6 mice were purchased from Taconic. C57BL/6-FXII^−/− mice and C57BL/6-FVII^tTA/tTA mice were bred in our own facility and genotyped. The breeders were kindly provided by Dr. Francis J. Castellino at University of Notre Dame. […] CCl4 was dissolved in corn oil, whereas all other substances were dissolved in PBS. The vehicle or the test substance was given to mice in 0.1 ml volume per 20 g body weight. Blood was collected from the mice at specific times by cardiac puncture at the time of sacrifice by carbon dioxide, and heart, liver and kidney were also collected from some of the mice. Blood was collected into K3 EDTA-containing tubes (Multivette 600 from Sarstedt), unless specified otherwise. All blood samples were promptly centrifuged to obtain plasma samples.
Measurement of Plasma Levels of Aspartate Transaminase (AST) and Alanine Transaminase (ALT). Plasma AST activity was measured using the Infinity™ AST (GOT) Reagent kit (Thermo, TR70121). Plasma ALT activity was measured using the Infinity™ ALT (GPT) Reagent kit (Thermo, TR71121). […]

plasma PEPD = assay: Plasma PEPD concentration in mice by ELISA; format: in vivo, mouse; conditions: CCl4 0.5 g/kg i.p., 24 h
Experimental: as §1
Measurement of plasma levels of PEPD, SRC, Aβ1-42 and FI. […] The plates were washed three times with phosphate buffered saline tween-20 (PBST) and the coated wells were blocked by incubation with 200 μl/well of 1% BSA in PBS for at least 2 h at RT. After another round of wash with PBST, the plates were incubated with appropriately diluted Aβ1-42 standard, SRC standard or plasma samples (100 μl/well) for 2 h at RT. The plates were then washed with PBST and incubated with an anti-Aβ1-42 rabbit polyclonal antibody (sc-9129) or anti-SRC rabbit monoclonal antibody (2123) at 100 μl/well for 2 h at RT. The plates were washed again with PBST, and each well was incubated with a goat anti-rabbit IgG-HRP conjugate (100 μl) for 1 h at RT. After yet another round of wash with PBST, each well was incubated with 100 μl of HRP substrate 3,3′,5,5′-tetramethylbenzedine (Cell Signaling, 7004). Upon adequate color development, 100 μl of stop solution (Cell Signaling, 7002) was added to each well, and absorbance at 450 nm was promptly recorded by a microtiter plate reader. Plasma FI concentration was determined using an assay kit (400-374-130050) from GenWay Biotech, following the manufacturer's instruction.

ERBB1 and ERBB2 = assay: Tissue levels and phosphorylation of ERBB1 and ERBB2 by IB; format: in vivo, mouse; conditions: CCl4 0.5 g/kg or hPEPD 4 mg/kg i.p., 24 h
Experimental: as §1
IB. […] Protein concentrations in all samples were measured by the BCA assay kit. […] The proteins were transferred to polyvinylidene fluoride membrane, probed with specific antibodies and detected using the ECL Plus Kit (Amersham) or the SuperSignal West Pico Kit (Thermo Scientific).

plasma Aβ1-42 = assay: Plasma Aβ1-42 concentration in mice by ELISA; format: in vivo, mouse; conditions: FXII−/− mice, CCl4 0.5 g/kg or hPEPD 4 mg/kg i.p., 24 h
Experimental: Animal studies. All animal studies were performed in accordance with protocols approved by the Institutional Animal Care and Use Committee at Roswell Park Cancer Institute. Male mice at 7-8 weeks of age were used, including wild type (WT) mice (C57BL/6), and mice deficient in FXII (C57BL/6-FXII^−/−) or FVII (C57BL/6-FVII^tTA/tTA). WT C57BL/6 mice were purchased from Taconic. C57BL/6-FXII^−/− mice and C57BL/6-FVII^tTA/tTA mice were bred in our own facility and genotyped. […] CCl4 was dissolved in corn oil, whereas all other substances were dissolved in PBS. The vehicle or the test substance was given to mice in 0.1 ml volume per 20 g body weight. Blood was collected from the mice at specific times by cardiac puncture at the time of sacrifice by carbon dioxide, and heart, liver and kidney were also collected from some of the mice. Blood was collected into K3 EDTA-containing tubes (Multivette 600 from Sarstedt), unless specified otherwise. All blood samples were promptly centrifuged to obtain plasma samples.

[1] = system: plasma coagulation factors FXII, PK, HMWK, FXI, FIX, FX, FII, FI and FVII; assay: Changes in plasma coagulation factors in mice by IB (FI by ELISA); format: in vivo, mouse; conditions: WT mice, 6 h after i.p. treatment
Experimental: Animal studies. […] Male mice at 7-8 weeks of age were used, including wild type (WT) mice (C57BL/6), and mice deficient in FXII (C57BL/6-FXII^−/−) or FVII (C57BL/6-FVII^tTA/tTA). WT C57BL/6 mice were purchased from Taconic. C57BL/6-FXII^−/− mice and C57BL/6-FVII^tTA/tTA mice were bred in our own facility and genotyped. […] CCl4 was dissolved in corn oil, whereas all other substances were dissolved in PBS. The vehicle or the test substance was given to mice in 0.1 ml volume per 20 g body weight. Blood was collected from the mice at specific times by cardiac puncture at the time of sacrifice by carbon dioxide, and heart, liver and kidney were also collected from some of the mice. Blood was collected into K3 EDTA-containing tubes (Multivette 600 from Sarstedt), unless specified otherwise. All blood samples were promptly centrifuged to obtain plasma samples.
The plates were washed three times with phosphate buffered saline tween-20 (PBST) and the coated wells were blocked by incubation with 200 μl/well of 1% BSA in PBS for at least 2 h at RT. […] The plates were washed again with PBST, and each well was incubated with a goat anti-rabbit IgG-HRP conjugate (100 μl) for 1 h at RT. After yet another round of wash with PBST, each well was incubated with 100 μl of HRP substrate 3,3′,5,5′-tetramethylbenzedine (Cell Signaling, 7004). Upon adequate color development, 100 μl of stop solution (Cell Signaling, 7002) was added to each well, and absorbance at 450 nm was promptly recorded by a microtiter plate reader. Plasma FI concentration was determined using an assay kit (400-374-130050) from GenWay Biotech, following the manufacturer's instruction.
IB. Tissue samples were mixed with RIPA buffer (25 mM Tris-HCl, pH 7.6, 150 mM NaCl, 1% Nonidet P-40, 1% sodium deoxycholate, 0.1% SDS), supplemented with 2 mM phenylmethanesulfonyl fluoride, a proteinase inhibitor mix (Roche Applied Science) and phosphatase inhibitor Cocktail 2 (Sigma-Aldrich). Tissue samples were stroked in a Dounce homogenizer, and the homogenates were cleared by centrifugation at 12,000×g for 15 min at 4° C. Protein concentrations in all samples were measured by the BCA assay kit. Plasma samples were used without further processing (20 μl per sample). Each sample was mixed with 4× loading dye, heated for 5 min at 95° C. and then resolved by SDS-PAGE (8-12.5%). […] The proteins were transferred to polyvinylidene fluoride membrane, probed with specific antibodies and detected using the ECL Plus Kit (Amersham) or the SuperSignal West Pico Kit (Thermo Scientific).

FXII [2] = assay: FXII activation, chromogenic assay; format: biochemical, human; conditions: FXII 0.97 nM, ZnCl2-containing PBS, RT
Experimental: Measurement of FXII activation. […] FXII activation was followed for 3 h at RT by monitoring the conversion of the chromogenic substrate at 405 nm by a microtiter plate reader.
Each value is mean±SD (n=3).

FXII [3] = assay: Binding to coagulation factor FXII (IP and IB); design: species or system human; conditions: 40 nM (hAβ1-42 200 nM) with FXII in PBS, 2 h
Experimental: Binding reactions were carried out in PBS in a total volume of 100 μl for 2 h at 37° C. To assess binding of hPEPD to HMWK, PK, FXI, FXII or a FXII mutant, hPEPD at 40 nM was incubated with a potential binding partner at 0.5 μM. All FXII mutants are His tagged, while FXII is either 6XHis-tagged (generated in our own laboratory) or not His-tagged (purchased commercially), depending on the experiment. To compare hPEPD and its mutants for binding to FXII, hPEPD or a mutant (40 nM) was incubated with FXII at 0.5 μM. Likewise, to assess binding of mSRC to FXII and its mutants, mSRC (40 nM) was incubated with FXII or a mutant at 0.5 μM. At the end of the incubation, 300 μl PBS containing a specific primary antibody was added to the incubation solution, which was further incubated at 4° C. overnight, followed by IP by protein G-agarose, and the precipitates were analyzed by IB. […] The precipitates were re-dissolved in 30 μl of 2% SDS, which were analyzed along with the supernatants by IB.

CC(=O)CC(c1ccccc1)c1c(O)c2ccccc2oc1=O (centres unmarked) [warfarin]
elevation of plasma levels of hAβ1-42 (plasma hAβ1-42; warfarin 1 mg/kg oral once daily 5 days): 33.2 fold | elevation of plasma levels of hAβ1-42 (plasma hAβ1-42; warfarin 3 mg/kg oral once daily 5 days): 42.4 fold

[H]/N=C(/N)c1ccc(NCc2nc3cc(C(=O)N(CCC(=O)O)c4ccccn4)ccc3n2C)cc1 [dabigatran]
elevation of plasma levels of hAβ1-42 (plasma hAβ1-42; dabigatran 22.5 mg/kg oral once daily 5 days): 14.1 fold | elevation of plasma levels of hAβ1-42 (plasma hAβ1-42; dabigatran 45 mg/kg oral once daily 5 days): 21.3 fold | top dose tested is the maximal soluble dose (plasma hAβ1-42): maximal soluble doses

O=C(NC[C@H]1CN(c2ccc(N3CCOCC3=O)cc2)C(=O)O1)c1ccc(Cl)s1 [rivaroxaban]
relative effectiveness in elevating plasma hAβ1-42 level (plasma hAβ1-42; comparison among warfarin, rivaroxaban, dabigatran and with EP): the most effective; also recorded: not as effective as EP | top dose tested is the maximal soluble dose (plasma hAβ1-42): maximal soluble doses | elevation of plasma levels of hAβ1-42 (plasma hAβ1-42; rivaroxaban 10 mg/kg oral once daily 5 days): 47.2 fold | elevation of plasma levels of hAβ1-42 (plasma hAβ1-42; rivaroxaban 20 mg/kg oral once daily 5 days): 55.5 fold

ClC(Cl)(Cl)Cl [CCl4, Carbon tetrachloride]
average plasma level of mSRC, increase (plasma mSRC): 6.7% | liver damage (plasma AST, ALT, liver weight) (liver): caused significant but similar liver damage | plasma level of mPEPD, increase (plasma PEPD; FXII−/− mice): 16.7 fold | plasma level of mPEPD, increase (plasma PEPD; WT mice): 3.7 fold | changes in ERBB1/ERBB2 tyrosine phosphorylation and receptor depletion in heart, kidney and liver, WT mice compared to FXII−/− mice (ERBB1 and ERBB2): reduced changes in receptor tyrosine phosphorylation | average plasma level of mAβ1-42, increase (plasma Aβ1-42): 24.9%

B1: mPEPD: mouse PEPD purified from mouse kidney by immunoaffinity purification, without any tag (protein, UniProt Q11136 2-493, looked up)
Xaa-Pro dipeptidase: ASTVRPSFSLGNETLKVPLALFALNRQRLCERLRKNGAVQAASAVVLQGGEEMQRYCTDTSIIFRQESFFHWAFGVVESGCYGVIDVDTGKSTLFVPRLPDSYATWMGKIHSKEYFKEKYAVDDVQYTDEIASVLTSRNPSVLLTLRGVNTDSGSVCREASFEGISKFNVNNTILHPEIVECRVFKTDMELEVLRYTNRISSEAHREVMKAVKVGMKEYEMESLFQHYCYSRGGMRHTSYTCICCSGENAAVLHYGHAGAPNDRTIKDGDICLFDMGGEYYCFASDITCSFPANGKFTEDQKAIYEAVLRSCRTVMSTMKPGVWWPDMHRLADRIHLEELARIGLLSGSVDAMLQVHLGAVFMPHGLGHFLGLDVHDVGGYPEGVERIDEPGLRSLRTARHLEPGMVLTVEPGIYFIDHLLDQALADPAQACFFNQEVLQRFRNFGGVRIEEDVVVTDSGMELLTCVPRTVEEIEACMAGCDKASVPFSGQK
activation/cleavage of plasma coagulation factors [1]: elicited the same response as did hPEPD

B2: 1M-228Hdel-hPEPD: hPEPD mutant named only once; probably 1M-265Rdel-hPEPD (protein, UniProt P12955 229-493, looked up, fragment)
chain: YCYSRGGMRHSSYTCICGSGENSAVLHYGHAGAPNDRTIQNGDMCLFDMGGEYYCFASDITCSFPANGKFTADQKAVYEAVLRSSRAVMGAMKPGVWWPDMHRLADRIHLEELAHMGILSGSVDAMVQAHLGAVFMPHGLGHFLGIDVHDVGGYPEGVERIDEPGLRSLRTARHLQPGMVLTVEPGIYFIDHLLDEALADPARASFLNREVLQRFRGFGGVRIEEDVVVTDSGIELLTCVPRTVEEIEACMAGCDKAFTPFSGPK
FXII activation, activity relative to hPEPD (FXII [2]): about 50%

B3: 1M-265Rdel-hPEPD: hPEPD deletion mutant, cannot form homodimers (protein, UniProt P12955 266-493, looked up, fragment)
chain: TIQNGDMCLFDMGGEYYCFASDITCSFPANGKFTADQKAVYEAVLRSSRAVMGAMKPGVWWPDMHRLADRIHLEELAHMGILSGSVDAMVQAHLGAVFMPHGLGHFLGIDVHDVGGYPEGVERIDEPGLRSLRTARHLQPGMVLTVEPGIYFIDHLLDEALADPARASFLNREVLQRFRGFGGVRIEEDVVVTDSGIELLTCVPRTVEEIEACMAGCDKAFTPFSGPK
binding to FXII (FXII [3]): almost indistinguishable from hPEPD in FXII binding

B4: 266T-493Kdel-hPEPD: hPEPD deletion mutant, cannot form homodimers (protein, UniProt P12955 1-265, looked up, fragment)
chain: MAAATGPSFWLGNETLKVPLALFALNRQRLCERLRKNPAVQAGSIVVLQGGEETQRYCTDTGVLFRQESFFHWAFGVTEPGCYGVIDVDTGKSTLFVPRLPASHATWMGKIHSKEHFKEKYAVDDVQYVDEIASVLTSQKPSVLLTLRGVNTDSGSVCREASFDGISKFEVNNTILHPEIVECRVFKTDMELEVLRYTNKISSEAHREVMKAVKVGMKEYELESLFEHYCYSRGGMRHSSYTCICGSGENSAVLHYGHAGAPNDR
binding to FXII (FXII [3]): neither 185V-493Kdel-hPEPD nor 266T-493Kdel-hPEPD could bind to FXII

B5: 185V-493Kdel-hPEPD: hPEPD deletion mutant, cannot form homodimers (protein, UniProt P12955 1-184, looked up, fragment)
chain: MAAATGPSFWLGNETLKVPLALFALNRQRLCERLRKNPAVQAGSIVVLQGGEETQRYCTDTGVLFRQESFFHWAFGVTEPGCYGVIDVDTGKSTLFVPRLPASHATWMGKIHSKEHFKEKYAVDDVQYVDEIASVLTSQKPSVLLTLRGVNTDSGSVCREASFDGISKFEVNNTILHPEIVECR
binding to FXII (FXII [3]): neither 185V-493Kdel-hPEPD nor 266T-493Kdel-hPEPD could bind to FXII
